Measurements: US20240261417A1, “SOS1 DEGRADING AGENT AND PREPARATION METHOD THEREFOR AND APPLICATION THEREOF” (SHANGHAI LEADINGTAC PHARMACEUTICAL CO. LTD., priority 2021, published 2024)

Molecular target: T1, KRAS-G12C/SOS1 (Homo sapiens, UniProt Q07889)
T1 construct: purchased Cisbio 63ADKOOOCB16PEG
T1 sequence (Q07889 1-1333): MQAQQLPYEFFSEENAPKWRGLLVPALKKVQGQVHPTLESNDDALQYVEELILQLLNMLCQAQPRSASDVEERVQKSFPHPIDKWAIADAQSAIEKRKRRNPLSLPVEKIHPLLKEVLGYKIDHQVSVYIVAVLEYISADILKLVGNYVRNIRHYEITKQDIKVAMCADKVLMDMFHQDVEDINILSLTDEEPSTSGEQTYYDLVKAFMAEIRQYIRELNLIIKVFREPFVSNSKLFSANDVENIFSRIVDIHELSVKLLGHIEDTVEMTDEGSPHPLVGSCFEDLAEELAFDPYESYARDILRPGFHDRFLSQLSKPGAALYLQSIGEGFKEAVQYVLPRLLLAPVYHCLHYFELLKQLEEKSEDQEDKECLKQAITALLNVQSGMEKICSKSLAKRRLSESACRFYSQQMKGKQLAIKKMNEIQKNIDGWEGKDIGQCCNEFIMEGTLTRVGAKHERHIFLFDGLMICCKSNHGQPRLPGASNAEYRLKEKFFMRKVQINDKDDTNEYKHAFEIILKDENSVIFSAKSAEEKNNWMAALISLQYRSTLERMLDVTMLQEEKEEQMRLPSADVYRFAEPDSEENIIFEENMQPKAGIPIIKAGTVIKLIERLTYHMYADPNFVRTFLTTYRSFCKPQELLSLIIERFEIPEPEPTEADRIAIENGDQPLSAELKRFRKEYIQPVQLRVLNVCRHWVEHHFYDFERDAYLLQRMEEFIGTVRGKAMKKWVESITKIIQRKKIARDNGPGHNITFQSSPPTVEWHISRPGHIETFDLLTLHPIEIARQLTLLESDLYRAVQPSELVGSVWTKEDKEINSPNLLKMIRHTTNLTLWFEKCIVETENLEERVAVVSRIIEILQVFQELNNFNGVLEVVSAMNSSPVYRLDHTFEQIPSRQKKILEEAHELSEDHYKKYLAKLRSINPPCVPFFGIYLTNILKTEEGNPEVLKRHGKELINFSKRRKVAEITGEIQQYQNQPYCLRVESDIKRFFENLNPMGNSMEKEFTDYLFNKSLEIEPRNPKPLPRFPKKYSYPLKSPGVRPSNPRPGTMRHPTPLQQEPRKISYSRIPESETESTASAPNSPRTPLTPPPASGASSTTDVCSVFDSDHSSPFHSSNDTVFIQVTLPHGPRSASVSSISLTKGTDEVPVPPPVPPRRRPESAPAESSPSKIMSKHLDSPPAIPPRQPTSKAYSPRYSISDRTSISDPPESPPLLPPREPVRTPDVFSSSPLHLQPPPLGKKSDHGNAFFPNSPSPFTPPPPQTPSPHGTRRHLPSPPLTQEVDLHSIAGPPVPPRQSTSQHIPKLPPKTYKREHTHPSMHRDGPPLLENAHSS
Assay: KRAS-G12C/SOS1 binding assay (HTRF)
Conditions: inhibition of KRAS-G12C/SOS1 binding
Outline: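 HTRF competition assay with Tag1-SOS1 and Tag2-KRAS-G12C (10 μM GTP). Compounds at 10000 nM-0.04 nM final (0.5% DMSO), incubated 15 min at 25° C, then anti-tag Tb3+/XL665 antibodies added for 3 h on ice. The 665/620 nm ratio was compared with control and IC50 derived by nonlinear fit.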

Row | SMILES | IC50 [nM]
1 | COc1cc2nc(C)nc(N[C@H](C)c3cc(N)cc(C(F)(F)F)c3)c2cc1[C@H]1CC[C@H](C(=O)N2CCN(CCC3CCC4(CC3)CCN(C(=O)c3ccc(Cl)c(N5CCC(=O)NC5=O)c3)CC4)CC2)CC1 [Example 1, 1-(5-(9-(2-(4-((1R,4R)-4-(4-(((R)-1-(3-amino-5-(trifluoromethyl)phenyl)ethyl)amino)-7-methoxy-2-methylquinazolin-6-yl)cyclohexane-1-carbonyl)piperazin-1-yl)ethyl)-3-azaspiro[5.5]undecane-3-carbonyl)-2-chlorophenyl)dihydropyrimidine-2,4(1H,3H)-dione] | 15 to 30
2 | COc1cc2nc(C)nc(N[C@H](C)c3cc(N)cc(C(F)(F)F)c3)c2cc1[C@H]1CC[C@H](C(=O)N2CCN(CC3CCC4(CC3)CCN(C(=O)c3ccc(Cl)c(N5CCC(=O)NC5=O)c3)CC4)CC2)CC1 [Example 2, 1-(5-(9-((4-((1R,4R)-4-(4-(((R)-1-(3-amino-5-(trifluoromethyl)phenyl)ethyl)amino)-7-methoxy-2-methylquinazolin-6-yl)cyclohexane-1-carbonyl)piperazin-1-yl)methyl)-3-azaspiro[5.5]undecane-3-carbonyl)-2-chlorophenyl)dihydropyrimidine-2,4(1H,3H)-dione] | ≤ 15
